The subject of assay [1] is Phosphorylation of ERK1/2 in AsPC-1 cells. Briefly: Phospho-ERK1/2 MSD Assay. The format is cell-based, human. The following applies: Homo sapiens, ASPC1, 2 h. Put shortly: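 Read-out: MSD electrochemiluminescent detection of phosphorylated ERK1/2 in whole-cell lysates, fitted to a 4-parameter logistic curve for IC50. Prior to lysis, AsPC-1 cells (25,000 per well) received a 2 h compound dose-response at 37 °C.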

The next assay deals with SW620 cells. Briefly: SW620 CTG Assay (CellTiter-Glo cell viability). Format: cell-based, human. The settings on record: Homo sapiens, SW-620; SW620, 72 h; third value of the cell; read-out: G12D/C/V Cell Proliferation CTG (72 h) SW620. Here is the method:
AsPC-1 and SW620 CTG Assay Protocols
AsPC-1 (human pancreatic adenocarcinoma; ATCC CRL-1682) or SW620 (human colon adenocarcinoma; ATCC CCL-227) cells were cultured in RPMI 1640 medium containing 10% fetal bovine serum and 1× penicillin/streptomycin/L-glutamine. Cells were seeded in 384-well plates at a density of 3.33E+04 cells/mL and incubated at 37° C., 5% CO2, overnight. Serially-diluted compound or DMSO was added to the cells, and plates were incubated at 37° C., 5% CO2 for 72 h. Cell viability was measured using a CellTiter-Glo® Luminescent Cell Viability Assay kit (Promega) according to the manufacturer's protocol. The luminescence signal of treated samples was normalized to DMSO control, and data were analyzed using a 4-parameter logistic model to calculate IC50 values.

Assay [2] deals with His-tagged KRAS G12D protein (Homo sapiens (Human), UniProt P01116, G12D). Description: KRAS G12D TR-FRET Assay. Format: binding. Put shortly:
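His-tagged KRAS G12D (diluted to 20 nM in pH 7.4 HEPES buffer with 10 mM MgCl2 and 10 μM GDP) was preincubated with titrated compound for 30 min at room temperature. Biotinylated KRPep-2d peptide (diluted to 20 nM) was then added for 1 h, and displacement was monitored by TR-FRET.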

For the next assay, the system named is AsPC-1 cells. Description: AsPC-1 CTG Assay (CellTiter-Glo cell viability). The settings on record: Homo sapiens, ASPC1, 72 h, first value of the cell, read-out: G12D/C/V Cell Proliferation CTG (72 h) AsPC-1. The format is cell-based, human. Put shortly: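 Human pancreatic AsPC-1 or colon SW620 cells in RPMI 1640 with 10% FBS, seeded overnight, then exposed to serially diluted compound for 72 h at 37 °C. CellTiter-Glo luminescence normalized to DMSO control; IC50 from a 4-parameter logistic model.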

Assay [3] has as its target GDP-bound KRAS protein (aa 1-169), containing both G12D and C118A amino acid substitutions (Homo sapiens (Human), UniProt P01116, C118A/G12D). Description: KRAS G12D Coupled Nucleotide Exchange Assay. Format: biochemical.
The subject of the next assay is MIA PaCa-2 cells. Briefly: MIA PaCa-2 CTG Assay (CellTiter-Glo cell viability). Format: cell-based, human. The following applies: Homo sapiens; MIA PaCa-2 cells (G12C), 72 h; second value of the cell; read-out: G12D/C/V Cell Proliferation CTG (72 h) MIA PaCa-2. Put shortly: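 Human pancreatic carcinoma cells in RPMI 1640 with 10% FBS, seeded at 1.67E+04 cells/mL and left overnight, were treated with serially diluted compound for 72 h at 37° C, 5% CO2. Viability was read by CellTiter-Glo luminescence normalized to DMSO; IC50 came from a 4-parameter logistic fit.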

The mark [4] stands for this setting: read-out: 2 h p-ERK (AsPC-1 cells), IC50.
[5] abbreviates: read-out: KRAS G12D Binding IC50.
The mark [6] stands for this setting: read-out: KRAS G12D Coupled Exchange IC50.
The mark [7] stands for this setting: read-out: 2 h p-ERK (AsPC-1 cells).
Setting [8] is: TR-FRET, read-out: KRAS G12D Binding.
Setting [9] is: 2 hours compound pre-incubation, read-out: KRAS G12D Coupled Exchange.

Among the data in patent US20240294551A1 (AMGEN INC., priority 2022, published 2024) are IC50 values, retold here.

Molecules are shown by their SMILES. Where a name gives a salt, the structure may show the parent alone. Read-outs that look alike come from different tables or passages of the source.

Sequence of His-tagged KRAS G12D protein (P01116 other isoform, or with tags, fused parts or gaps G12D): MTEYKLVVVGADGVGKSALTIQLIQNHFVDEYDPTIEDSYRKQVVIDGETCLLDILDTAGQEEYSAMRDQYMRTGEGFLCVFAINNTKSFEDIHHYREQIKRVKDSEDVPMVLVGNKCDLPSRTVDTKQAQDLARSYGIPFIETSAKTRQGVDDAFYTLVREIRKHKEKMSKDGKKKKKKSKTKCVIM
Sequence of GDP-bound KRAS protein (aa 1-169), containing both G12D and C118A amino acid substitutions (P01116 other isoform, or with tags, fused parts or gaps G12D/C118A): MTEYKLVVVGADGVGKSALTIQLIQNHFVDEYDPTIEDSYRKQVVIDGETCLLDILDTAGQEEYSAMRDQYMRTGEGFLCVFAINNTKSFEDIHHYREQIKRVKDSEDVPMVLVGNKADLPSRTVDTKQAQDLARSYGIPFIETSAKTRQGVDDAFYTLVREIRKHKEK

Take `Fc1c2ncc3c(nc(OC[C@@]45CCCN4C[C@H](F)C5)nc13)N1CCOC[C@@H](COCCCCc3c(Cl)cc4[nH]ncc4c3-2)C1` (single isomer, unassigned) [Example 137]: the IC50 in assay [1] (setting [4]) worked out at 47 nM; with SW620 cells, 96.7 nM; in assay [2] (setting [5]), 4 nM; in the assay with AsPC-1 cells (AsPC-1, 72 h), 420 nM; in assay [3] (setting [6]), 2 nM.

Regarding `Cc1cc2[nH]ncc2c2c1CCOC(=O)O[C@H]1C[C@]3(CCCN(C3)c3nc(OC[C@@H]4CCCN4C)nc4c(F)c-2ncc34)C1` (single isomer, unassigned) [Example 326], the IC50 in assay [1] (setting [4]) worked out at 16.8 nM; in the assay on SW620 cells it was 66 nM; in assay [2] (setting [5]) it was 4 nM; in the assay on AsPC-1 cells (AsPC-1, 72 h), 114 nM; in assay [3] (setting [6]), 2 nM.

On to `C[C@@]12CCCN(C1)c1nc(OC[C@@]34CCCN3C[C@H](F)C4)nc3c(F)c(ncc13)-c1cc(O)cc3cccc(c13)CCCCC(=O)N2` [Example 8, (15R)-32-Fluoro-8-(((2R,7aS)-2-fluorotetrahydro-1H-pyrrolo[1,2-a]pyrrol-7a(5H)-yl)methoxy)-28-hydroxy-15-methyl-3,7,9,11,16-pentaazahexacyclo[20.7.1.1˜2,6˜.1˜11,15˜.0˜5,10˜.0˜26,30˜]dotriaconta-1(29),2(32),3,5,7,9,22,24,26(30),27-decaen-17-one (2,2,2-trifluoroacetate) salt], for which the IC50 is 60 nM in assay [1] (setting [4]), 579 nM in the assay with SW620 cells, 8 nM in assay [2] (setting [5]) and 6 nM in assay [3] (setting [6]).

`C[C@@]12CCCN(C1)c1nc(OC[C@@]34CCCN3C[C@H](F)C4)nc3c(F)c(ncc13)-c1cccc3ccc(F)c(c13)CC[C@H](F)C(=O)N2` [Example 12, (15R,18S)-18,22,31-trifluoro-8-(((2R,7aS)-2-fluorotetrahydro-1H-pyrrolo[1,2-a]pyrrol-7a(5H)-yl)methoxy)-15-methyl-3,7,9,11,16-pentaazahexacyclo[19.7.1.1˜2,6˜.1˜11,15˜.0˜5,10˜.0˜25,29˜]hentriaconta-1(28),2(31),3,5,7,9,21,23,25(29),26-decaen-17-one]: the IC50 in assay [1] (setting [4]) turned out to be 52 nM; in the assay with SW620 cells, 427 nM; in assay [2] (setting [5]) it was 6 nM; with AsPC-1 cells (AsPC-1, 72 h), 490 nM; in assay [3] (setting [6]), 3 nM.

For `Cc1cc2[nH]ncc2c2c1CCCOC(=O)O[C@@H]1CCCN(C1)c1nc(OC[C@@]34CCCN3C[C@H](F)C4)nc3c(F)c-2ncc13` [Example 38, (17R)-30-Fluoro-24-(((2R,7aS)-2-fluorotetrahydro-1H-pyrrolo[1,2-a]pyrrol-7a(5H)-yl)methoxy)-9-methyl-14,16-dioxa-5,6,21,23,25,29-hexaazahexacyclo[24.3.1.1˜17,21˜.0˜2,10˜.0˜3,7˜.0˜22,27˜]hentriaconta-1(30),2,4,7,9,22,24,26,28-nonaen-15-one bis(2,2,2-trifluoroacetate)], the IC50 turned out to be 20 nM in assay [1] (setting [4]); 76 nM with SW620 cells; 2 nM in assay [2] (setting [5]); 443 nM with AsPC-1 cells (AsPC-1, 72 h); 2 nM in assay [3] (setting [6]).

In the case of `Cc1cc2[nH]ncc2c2c1CCCOC(=O)O[C@@H]1COCCN(C1)c1nc(OC[C@@]34CCCN3C[C@H](F)C4)nc3c(F)c-2c(F)cc13` [Example 102, (26S)-9,32-difluoro-4-(((2R,7aS)-2-fluorotetrahydro-1H-pyrrolo[1,2-a]pyrrol-7a(5H)-yl)methoxy)-18-methyl-23,25,28-trioxa-1,3,5,14,15-pentaazahexacyclo[24.4.1.1~6,10~.0~2,7~.0~11,19~.0~12,16~]dotriaconta-2,4,6,8,10(32),11,13,16,18-nonaen-24-one], the IC50 in assay [1] (setting [4]) was 10 nM; in the assay on SW620 cells, 22.6 nM; in the assay with AsPC-1 cells (AsPC-1, 72 h), 90 nM.

For the compound `CN(C)CC1(COc2nc3c4cnc(c(F)c4n2)-c2c(c(Cl)cc4[nH]ncc24)CCOC(=O)O[C@H]2C[C@]4(CCCN3C4)C2)CC1` [Example 334, (1S,3R)-10-chloro-24-((1-((dimethylamino)methyl)cyclopropyl)methoxy)-32-fluoro-4,6-dioxa-13,14,19,23,25,27-hexaazaheptacyclo[25.3.1.1~1,3~.1~18,22~.0~9,17~.0~12,16~.0~21,26~]tritriaconta-9,11,14,16,18(32),19,21,23,25-nonaen-5-one], the IC50 was 8 nM in assay [1] (setting [4]); 31 nM with SW620 cells; 117 nM in the assay on AsPC-1 cells (AsPC-1, 72 h); 1 nM in assay [3] (setting [6]).

Take `CN1CCC[C@H]1COc1nc2c3cnc(c(F)c3n1)-c1c(c(Cl)cc3[nH]ncc13)CCc1cnc(o1)[C@@H](O)[C@@H]1CCCN2C1` [Example 394, (17S,18R)-9-chloro-31-fluoro-25-(((2S)-1-methylpyrrolidin-2-yl)methoxy)-33-oxa-5,6,15,22,24,26,30-heptaazaheptacyclo[25.3.1.1~13,16~.1~18,22~.0~2,10~.0~3,7~.0~23,28~]tritriaconta-1(31),2,4,7,9,13,15,23,25,27,29-undecaen-17-ol]: the IC50 in assay [1] (setting [7]) was found to be 3 nM; in assay [2] (setting [8]) it was 5 nM; in the assay with AsPC-1 cells (AsPC-1 cells (G12D), 72 h), 58 nM; in assay [3] (setting [9]), 2 nM; in the assay on MIA PaCa-2 cells it was 10 nM.

Turning to `O[C@]12CCOCCc3c(Cl)cc4[nH]ncc4c3-c3ncc4c(nc(OC[C@@]56CCCN5C[C@H](F)C6)nc4c3F)N3CCC[C@@](C3)(C1)C2` [Example 397, (1S,3R)-10-chloro-32-fluoro-24-(((2R,7aS)-2-fluorotetrahydro-1H-pyrrolo[1,2-a]pyrrol-7a(5H)-yl)methoxy)-6-oxa-13,14,19,23,25,27-hexaazaheptacyclo[25.3.1.1~1,3~.1~18,22~.0~9,17~.0~12,16~.0~21,26~]tritriaconta-9,11,14,16,18(32),19,21,23,25-nonaen-3-ol], the IC50 in assay [1] (setting [7]) worked out at 1.4 nM; in assay [2] (setting [8]), 4 nM; in the assay with AsPC-1 cells (AsPC-1 cells (G12D), 72 h) it was 12 nM; in assay [3] (setting [9]), 2 nM; in the assay on MIA PaCa-2 cells it was 3 nM.

As for `Fc1c2ncc3c(nc(OC[C@@]45CCCN4C[C@H](F)C5)nc13)N1CCCC[C@](F)(COCCCCc3c(Cl)cc4[nH]ncc4c3-2)C1` [Example 398, (26R)-18-chloro-26,32-difluoro-4-(((2R,7aS)-2-fluorotetrahydro-1H-pyrrolo[1,2-a]pyrrol-7a(5H)-yl)methoxy)-24-oxa-1,3,5,9,14,15-hexaazahexacyclo[24.4.1.1~6,10~.0~2,7~.0~11,19~.0~12,16~]dotriaconta-2,4,6,8,10(32),11,13,16,18-nonaene], the IC50 in assay [1] (setting [7]) was determined as 26.8 nM; in assay [2] (setting [8]), 4 nM; with AsPC-1 cells (AsPC-1 cells (G12D), 72 h) it was 35 nM; in assay [3] (setting [9]), 2 nM; in the assay with MIA PaCa-2 cells, 170 nM.

In the case of `Fc1c2ncc3c(nc(OC[C@@]45CCCN4C[C@H](F)C5)nc13)N1CCCC[C@@](F)(COCCCCc3c(Cl)cc4[nH]ncc4c3-2)C1` [Example 399, (26S)-18-chloro-26,32-difluoro-4-(((2R,7aS)-2-fluorotetrahydro-1H-pyrrolo[1,2-a]pyrrol-7a(5H)-yl)methoxy)-24-oxa-1,3,5,9,14,15-hexaazahexacyclo[24.4.1.1~6,10~.0~2,7~.0~11,19~.0~12,16~]dotriaconta-2,4,6,8,10(32),11,13,16,18-nonaene], the IC50 was determined as 25.9 nM in assay [1] (setting [7]); 4 nM in assay [2] (setting [8]); 44 nM in the assay on AsPC-1 cells (AsPC-1 cells (G12D), 72 h); 2 nM in assay [3] (setting [9]); 105 nM in the assay with MIA PaCa-2 cells.
